Test results taken from the kinase profiling compilation of Christmann-Franck et al. (2016).
“And” between values parts separate entries of the source, which are not always exact repeats. Equal values may be shown once.

Key:
Assay in all cases: radiometric filter-binding kinase assay, Kinase HotSpot
AKT2 (human) = AKT2 (human) (UniProt P31751); settings: compound 0.5 µM; ATP 10 µM
ALK (human) = ALK (human) (UniProt Q9UM73); settings: compound 0.5 µM; ATP 10 µM
BMX (human) = BMX (human) (UniProt P51813); settings: compound 0.5 µM; ATP 10 µM
CAMK2B (human) = CAMK2B (human) (UniProt Q13554); settings: compound 0.5 µM; ATP 10 µM
Chain of CAMK2B (human) (Q13554 whole entry, looked up): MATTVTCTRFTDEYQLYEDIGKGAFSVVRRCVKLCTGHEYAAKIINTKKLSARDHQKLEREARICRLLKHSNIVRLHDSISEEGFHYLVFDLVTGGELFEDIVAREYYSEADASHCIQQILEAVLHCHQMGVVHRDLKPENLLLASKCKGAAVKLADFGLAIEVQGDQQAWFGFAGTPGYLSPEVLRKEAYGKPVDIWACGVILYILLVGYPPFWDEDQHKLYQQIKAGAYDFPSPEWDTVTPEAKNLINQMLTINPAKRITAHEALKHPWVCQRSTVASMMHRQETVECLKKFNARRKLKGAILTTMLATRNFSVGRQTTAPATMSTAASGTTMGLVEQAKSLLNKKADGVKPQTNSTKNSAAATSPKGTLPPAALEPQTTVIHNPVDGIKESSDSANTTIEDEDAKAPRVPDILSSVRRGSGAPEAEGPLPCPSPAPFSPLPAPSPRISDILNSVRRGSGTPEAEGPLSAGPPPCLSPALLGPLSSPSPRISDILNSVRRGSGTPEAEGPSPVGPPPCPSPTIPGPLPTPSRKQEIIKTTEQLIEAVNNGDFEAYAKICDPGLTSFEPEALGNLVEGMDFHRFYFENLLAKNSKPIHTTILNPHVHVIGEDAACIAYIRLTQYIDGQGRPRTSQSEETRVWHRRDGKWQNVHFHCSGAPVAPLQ

CDC42BPA (human) = CDC42BPA (human) (UniProt Q5VT25); settings: compound 0.5 µM; ATP 10 µM
Chain of CDC42BPA (human) (Q5VT25 whole entry, looked up): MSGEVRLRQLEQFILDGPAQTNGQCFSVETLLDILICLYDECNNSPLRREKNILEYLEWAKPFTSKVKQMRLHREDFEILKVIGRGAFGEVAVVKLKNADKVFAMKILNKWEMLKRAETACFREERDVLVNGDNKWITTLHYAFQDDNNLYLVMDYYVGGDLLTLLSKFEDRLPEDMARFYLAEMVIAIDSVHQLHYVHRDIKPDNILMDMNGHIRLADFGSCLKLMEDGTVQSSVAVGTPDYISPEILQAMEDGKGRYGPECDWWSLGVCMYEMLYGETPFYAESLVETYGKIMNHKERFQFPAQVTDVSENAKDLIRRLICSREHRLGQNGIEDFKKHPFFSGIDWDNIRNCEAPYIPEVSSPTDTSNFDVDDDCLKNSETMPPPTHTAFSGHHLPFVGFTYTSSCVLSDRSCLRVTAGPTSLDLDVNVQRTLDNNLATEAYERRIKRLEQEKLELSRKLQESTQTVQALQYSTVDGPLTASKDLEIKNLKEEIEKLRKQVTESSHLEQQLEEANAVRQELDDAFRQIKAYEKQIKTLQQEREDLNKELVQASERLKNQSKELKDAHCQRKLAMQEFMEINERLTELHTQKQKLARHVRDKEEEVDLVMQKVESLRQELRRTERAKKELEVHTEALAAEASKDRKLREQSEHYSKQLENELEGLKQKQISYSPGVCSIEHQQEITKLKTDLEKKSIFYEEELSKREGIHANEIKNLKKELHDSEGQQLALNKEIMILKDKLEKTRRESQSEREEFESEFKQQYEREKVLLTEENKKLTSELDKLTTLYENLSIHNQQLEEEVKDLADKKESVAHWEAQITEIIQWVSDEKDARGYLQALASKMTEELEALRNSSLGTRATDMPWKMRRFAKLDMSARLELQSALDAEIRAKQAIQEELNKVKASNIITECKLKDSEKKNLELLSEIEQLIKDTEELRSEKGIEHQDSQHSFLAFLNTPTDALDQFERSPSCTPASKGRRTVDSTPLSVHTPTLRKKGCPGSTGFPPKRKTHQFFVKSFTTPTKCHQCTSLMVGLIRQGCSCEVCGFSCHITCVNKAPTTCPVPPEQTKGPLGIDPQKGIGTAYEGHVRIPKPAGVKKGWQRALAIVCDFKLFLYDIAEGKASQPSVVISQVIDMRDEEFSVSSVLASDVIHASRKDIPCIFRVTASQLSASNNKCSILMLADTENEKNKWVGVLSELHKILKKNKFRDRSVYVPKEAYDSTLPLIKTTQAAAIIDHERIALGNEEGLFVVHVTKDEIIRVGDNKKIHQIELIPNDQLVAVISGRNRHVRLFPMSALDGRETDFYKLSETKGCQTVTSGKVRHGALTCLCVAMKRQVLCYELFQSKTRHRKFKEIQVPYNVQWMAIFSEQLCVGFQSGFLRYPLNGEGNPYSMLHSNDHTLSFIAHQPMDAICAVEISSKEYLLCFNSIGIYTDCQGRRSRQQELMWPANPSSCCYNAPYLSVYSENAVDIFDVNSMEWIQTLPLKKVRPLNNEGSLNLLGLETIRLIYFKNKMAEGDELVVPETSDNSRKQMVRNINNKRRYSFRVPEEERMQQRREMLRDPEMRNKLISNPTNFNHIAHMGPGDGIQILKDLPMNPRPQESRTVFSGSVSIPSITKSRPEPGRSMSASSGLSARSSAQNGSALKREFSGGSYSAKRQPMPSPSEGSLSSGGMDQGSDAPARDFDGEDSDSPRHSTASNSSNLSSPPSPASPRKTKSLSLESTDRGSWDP

CDK3 CCNE1 (human) = CDK3 CCNE1 (human) (UniProt Q00526+P24864); settings: compound 0.5 µM
CLK2 (human) = CLK2 (human) (UniProt P49760); settings: compound 0.5 µM; ATP 10 µM
Chain of CLK2 (human) (P49760 whole entry, looked up): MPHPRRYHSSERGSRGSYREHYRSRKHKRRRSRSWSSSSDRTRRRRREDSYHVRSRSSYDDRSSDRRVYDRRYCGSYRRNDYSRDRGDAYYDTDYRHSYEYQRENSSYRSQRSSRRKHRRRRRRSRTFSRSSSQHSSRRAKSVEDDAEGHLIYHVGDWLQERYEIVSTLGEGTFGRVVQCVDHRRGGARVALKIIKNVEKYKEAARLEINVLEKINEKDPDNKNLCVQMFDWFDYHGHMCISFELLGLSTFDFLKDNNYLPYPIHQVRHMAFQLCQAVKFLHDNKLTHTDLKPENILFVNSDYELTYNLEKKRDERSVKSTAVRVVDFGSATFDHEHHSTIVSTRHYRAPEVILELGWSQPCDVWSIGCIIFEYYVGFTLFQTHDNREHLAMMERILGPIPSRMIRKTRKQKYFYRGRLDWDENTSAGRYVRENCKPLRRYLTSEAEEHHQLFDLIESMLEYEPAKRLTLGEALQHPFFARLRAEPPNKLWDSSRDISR

CSK (human) = CSK (human) (UniProt P41240); settings: compound 0.5 µM; ATP 10 µM
DAPK1 (human) = DAPK1 (human) (UniProt P53355); settings: compound 0.5 µM; ATP 10 µM
DMPK (human) = DMPK (human) (UniProt Q09013); settings: compound 0.5 µM; ATP 10 µM
EPHA4 (human) = EPHA4 (human) (UniProt P54764); settings: compound 0.5 µM; ATP 10 µM
EPHB2 (human) = EPHB2 (human) (UniProt P29323); settings: compound 0.5 µM; ATP 10 µM
Chain of EPHB2 (human) (P29323 whole entry, looked up): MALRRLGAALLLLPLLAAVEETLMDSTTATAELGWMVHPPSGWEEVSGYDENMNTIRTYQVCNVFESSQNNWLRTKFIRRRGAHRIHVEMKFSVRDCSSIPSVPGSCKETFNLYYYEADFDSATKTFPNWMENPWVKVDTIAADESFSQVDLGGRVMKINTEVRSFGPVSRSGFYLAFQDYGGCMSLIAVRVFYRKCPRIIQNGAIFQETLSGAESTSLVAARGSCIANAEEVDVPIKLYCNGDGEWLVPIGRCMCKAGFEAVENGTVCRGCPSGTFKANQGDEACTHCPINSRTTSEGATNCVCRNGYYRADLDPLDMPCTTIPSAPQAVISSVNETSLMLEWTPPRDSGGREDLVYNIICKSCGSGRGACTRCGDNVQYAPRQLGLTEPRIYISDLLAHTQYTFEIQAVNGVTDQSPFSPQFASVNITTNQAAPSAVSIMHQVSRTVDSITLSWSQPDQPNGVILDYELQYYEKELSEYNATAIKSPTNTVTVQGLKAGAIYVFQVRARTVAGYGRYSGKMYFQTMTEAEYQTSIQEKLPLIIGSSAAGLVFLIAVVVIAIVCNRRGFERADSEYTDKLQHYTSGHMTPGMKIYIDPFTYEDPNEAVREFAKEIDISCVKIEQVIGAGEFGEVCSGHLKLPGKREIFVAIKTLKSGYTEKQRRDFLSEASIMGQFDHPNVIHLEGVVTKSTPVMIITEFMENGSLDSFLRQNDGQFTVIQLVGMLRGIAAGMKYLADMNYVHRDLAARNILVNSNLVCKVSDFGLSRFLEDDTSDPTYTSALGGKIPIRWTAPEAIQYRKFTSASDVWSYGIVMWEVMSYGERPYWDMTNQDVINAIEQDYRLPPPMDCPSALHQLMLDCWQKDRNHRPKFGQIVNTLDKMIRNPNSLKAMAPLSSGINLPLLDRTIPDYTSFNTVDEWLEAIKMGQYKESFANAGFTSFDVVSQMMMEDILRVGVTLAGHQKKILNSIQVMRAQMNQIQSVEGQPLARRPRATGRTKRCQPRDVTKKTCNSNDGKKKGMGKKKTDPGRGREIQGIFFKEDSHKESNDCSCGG

GRK7 (human) = GRK7 (human) (UniProt Q8WTQ7); settings: compound 0.5 µM; ATP 10 µM
GSK3A (human) = GSK3A (human) (UniProt P49840); settings: compound 0.5 µM; ATP 10 µM
HCK (human) = HCK (human) (UniProt P08631); settings: compound 0.5 µM; ATP 10 µM
IRAK1 (human) = IRAK1 (human) (UniProt P51617); settings: compound 0.5 µM; ATP 10 µM
LRRK2 (human) = LRRK2 (human) (UniProt Q5S007); settings: compound 0.5 µM; ATP 10 µM
LTK (human) = LTK (human) (UniProt P29376); settings: compound 0.5 µM; ATP 10 µM
LYN (human) = LYN (human) (UniProt P07948); settings: compound 0.5 µM; ATP 10 µM
MAP3K11 (human) = MAP3K11 (human) (UniProt Q16584); settings: compound 0.5 µM; ATP 10 µM
MAP4K2 (human) = MAP4K2 (human) (UniProt Q12851); settings: compound 0.5 µM; ATP 10 µM
NEK1 (human) = NEK1 (human) (UniProt Q96PY6); settings: compound 0.5 µM; ATP 10 µM
NEK7 (human) = NEK7 (human) (UniProt Q8TDX7); settings: compound 0.5 µM; ATP 10 µM
NTRK1 (human) = NTRK1 (human) (UniProt P04629); settings: compound 0.5 µM; ATP 10 µM
OXSR1 (human) = OXSR1 (human) (UniProt O95747); settings: compound 0.5 µM; ATP 10 µM
PAK4 (human) = PAK4 (human) (UniProt O96013); settings: compound 0.5 µM; ATP 10 µM
PAK7 (human) = PAK7 (human) (UniProt Q9P286); settings: compound 0.5 µM; ATP 10 µM
PIM2 (human) = PIM2 (human) (UniProt Q9P1W9); settings: compound 0.5 µM; ATP 10 µM
PRKD2 (human) = PRKD2 (human) (UniProt Q9BZL6); settings: compound 0.5 µM; ATP 10 µM
PRKG1 (human) = PRKG1 (human) (UniProt Q13976); settings: compound 0.5 µM; ATP 10 µM
PRKG2 (human) = PRKG2 (human) (UniProt Q13237); settings: compound 0.5 µM; ATP 10 µM
RIPK2 (human) = RIPK2 (human) (UniProt O43353); settings: compound 0.5 µM; ATP 10 µM
ROCK1 (human) = ROCK1 (human) (UniProt Q13464); settings: compound 0.5 µM; ATP 10 µM
ROCK2 (human) = ROCK2 (human) (UniProt O75116); settings: compound 0.5 µM; ATP 10 µM
RPS6KB1 (human) = RPS6KB1 (human) (UniProt P23443); settings: compound 0.5 µM; ATP 10 µM
SRC (human) = SRC (human) (UniProt P12931); settings: compound 0.5 µM; ATP 10 µM
STK10 (human) = STK10 (human) (UniProt O94804); settings: compound 0.5 µM; ATP 10 µM
STK17A (human) = STK17A (human) (UniProt Q9UEE5); settings: compound 0.5 µM; ATP 10 µM
STK25 (human) = STK25 (human) (UniProt O00506); settings: compound 0.5 µM; ATP 10 µM
TNK2 (human) = TNK2 (human) (UniProt Q07912); settings: compound 0.5 µM; ATP 10 µM
Chain of TNK2 (human) (Q07912 whole entry, looked up): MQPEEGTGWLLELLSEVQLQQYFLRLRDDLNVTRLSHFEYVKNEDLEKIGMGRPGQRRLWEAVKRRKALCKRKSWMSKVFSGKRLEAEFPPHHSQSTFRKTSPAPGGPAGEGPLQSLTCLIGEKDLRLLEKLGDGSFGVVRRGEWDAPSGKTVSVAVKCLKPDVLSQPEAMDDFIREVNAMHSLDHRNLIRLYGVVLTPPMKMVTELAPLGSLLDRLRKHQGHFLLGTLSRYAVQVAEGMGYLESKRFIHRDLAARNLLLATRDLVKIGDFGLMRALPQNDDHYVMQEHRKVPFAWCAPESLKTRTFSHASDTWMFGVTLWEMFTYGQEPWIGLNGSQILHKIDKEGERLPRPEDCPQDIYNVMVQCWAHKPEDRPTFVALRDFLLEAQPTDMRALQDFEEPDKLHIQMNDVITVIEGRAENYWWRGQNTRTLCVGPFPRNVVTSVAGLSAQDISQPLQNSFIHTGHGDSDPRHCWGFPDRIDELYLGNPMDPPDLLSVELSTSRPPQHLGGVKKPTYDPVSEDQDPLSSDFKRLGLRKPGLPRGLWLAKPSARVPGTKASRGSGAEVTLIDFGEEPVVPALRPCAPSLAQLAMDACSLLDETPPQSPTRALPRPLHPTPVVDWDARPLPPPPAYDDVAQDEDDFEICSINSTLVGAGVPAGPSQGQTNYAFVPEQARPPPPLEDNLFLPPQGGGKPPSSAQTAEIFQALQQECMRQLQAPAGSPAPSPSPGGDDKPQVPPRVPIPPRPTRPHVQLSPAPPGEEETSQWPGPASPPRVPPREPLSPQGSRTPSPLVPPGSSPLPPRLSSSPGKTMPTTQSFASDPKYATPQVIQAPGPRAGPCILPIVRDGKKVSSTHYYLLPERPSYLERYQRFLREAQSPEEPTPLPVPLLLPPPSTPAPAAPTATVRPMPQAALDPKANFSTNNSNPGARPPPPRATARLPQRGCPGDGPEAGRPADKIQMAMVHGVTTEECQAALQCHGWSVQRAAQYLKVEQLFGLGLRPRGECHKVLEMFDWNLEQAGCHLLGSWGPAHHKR

TSSK2 (human) = TSSK2 (human) (UniProt Q96PF2); settings: compound 0.5 µM; ATP 10 µM
ZAP70 (human) = ZAP70 (human) (UniProt P43403); settings: compound 0.5 µM; ATP 10 µM

CCc1nc(-c2ccc(OC)cc2)[nH]c1-c1ccncc1
residual activity (AKT2 (human)): 100% | residual activity (ALK (human)): 106% | residual activity (BMX (human)): 93.4% | residual activity (CAMK2B (human)): 97.1% | residual activity (CDC42BPA (human)): 96.3% | residual activity (CDK3 CCNE1 (human); ATP 10 µM): 97.9% | residual activity (CLK2 (human)): 106% | residual activity (CSK (human)): 101% | residual activity (DAPK1 (human)): 97.4% | residual activity (DMPK (human)): 102% | residual activity (EPHA4 (human)): 105% | residual activity (EPHB2 (human)): 111% | residual activity (GRK7 (human)): 101% | residual activity (GSK3A (human)): 99.1% | residual activity (HCK (human)): 95.1% | residual activity (IRAK1 (human)): 128% | residual activity (LRRK2 (human)): 96.7% | residual activity (LTK (human)): 106% | residual activity (LYN (human)): 101% and 103% | residual activity (MAP3K11 (human)): 96.7% | residual activity (MAP4K2 (human)): 106% | residual activity (NEK1 (human)): 98.9% | residual activity (NEK7 (human)): 99.8% | residual activity (NTRK1 (human)): 106% | residual activity (OXSR1 (human)): 97.7% | residual activity (PAK4 (human)): 118% | residual activity (PAK7 (human)): 101% | residual activity (PIM2 (human)): 105% | residual activity (PRKD2 (human)): 102% | residual activity (PRKG1 (human)): 81% and 91.2% | residual activity (PRKG2 (human)): 91.9% | residual activity (RIPK2 (human)): 95% | residual activity (ROCK1 (human)): 105% | residual activity (ROCK2 (human)): 101% | residual activity (RPS6KB1 (human)): 98.4% | residual activity (SRC (human)): 95.3% | residual activity (STK10 (human)): 96.8% | residual activity (STK17A (human)): 96.1% | residual activity (STK25 (human)): 116% | residual activity (TNK2 (human)): 100% | residual activity (TSSK2 (human)): 98.7% | residual activity (ZAP70 (human)): 101%

O=c1cc(N2CCOCC2)oc2c(-c3ccccc3)cccc12
residual activity (AKT2 (human)): 94% | residual activity (ALK (human)): 92.4% | residual activity (BMX (human)): 96.9% | residual activity (CAMK2B (human)): 110% | residual activity (CDC42BPA (human)): 104% | residual activity (CDK3 CCNE1 (human); ATP 10 µM): 89.6% | residual activity (CLK2 (human)): 100% | residual activity (CSK (human)): 88.1% | residual activity (DAPK1 (human)): 90.1% | residual activity (DMPK (human)): 99.4% | residual activity (EPHA4 (human)): 99.2% | residual activity (EPHB2 (human)): 99.8% | residual activity (GRK7 (human)): 112% | residual activity (GSK3A (human)): 93.5% | residual activity (HCK (human)): 98.3% | residual activity (IRAK1 (human)): 104% | residual activity (LRRK2 (human)): 96.9% | residual activity (LTK (human)): 87.8% | residual activity (LYN (human)): 94.5% and 99.4% | residual activity (MAP3K11 (human)): 101% | residual activity (MAP4K2 (human)): 87.8% | residual activity (NEK1 (human)): 86.7% | residual activity (NEK7 (human)): 92.1% | residual activity (NTRK1 (human)): 95% | residual activity (OXSR1 (human)): 118% | residual activity (PAK4 (human)): 92.8% | residual activity (PAK7 (human)): 104% | residual activity (PIM2 (human)): 106% | residual activity (PRKD2 (human)): 93.8% | residual activity (PRKG1 (human)): 104% and 105% | residual activity (PRKG2 (human)): 105% | residual activity (RIPK2 (human)): 89.9% | residual activity (ROCK1 (human)): 104% | residual activity (ROCK2 (human)): 95.2% | residual activity (RPS6KB1 (human)): 101% | residual activity (SRC (human)): 96.3% | residual activity (STK10 (human)): 97.1% | residual activity (STK17A (human)): 93.5% | residual activity (STK25 (human)): 116% | residual activity (TNK2 (human)): 88.7% | residual activity (TSSK2 (human)): 91.4% | residual activity (ZAP70 (human)): 102%

O=c1[nH]c2ccccc2n1C1CCN(Cc2ccc(-c3nc4cc5[nH]cnc5cc4nc3-c3ccccc3)cc2)CC1
residual activity (AKT2 (human)): 96.8% | residual activity (ALK (human)): 106% | residual activity (BMX (human)): 108% | residual activity (CAMK2B (human)): 104% | residual activity (CDC42BPA (human)): 105% | residual activity (CDK3 CCNE1 (human)): 97.5% | residual activity (CLK2 (human)): 114% | residual activity (CSK (human)): 101% | residual activity (DAPK1 (human)): 82.9% | residual activity (DMPK (human)): 98% | residual activity (EPHA4 (human)): 97.1% | residual activity (EPHB2 (human)): 108% | residual activity (GRK7 (human)): 98.5% | residual activity (GSK3A (human)): 100% | residual activity (HCK (human)): 99.6% | residual activity (IRAK1 (human)): 109% | residual activity (LRRK2 (human)): 103% | residual activity (LTK (human)): 95.6% | residual activity (LYN (human)): 102% and 116% | residual activity (MAP3K11 (human)): 94.6% | residual activity (MAP4K2 (human)): 105% | residual activity (NEK1 (human)): 101% | residual activity (NEK7 (human)): 99.6% | residual activity (NTRK1 (human)): 99.4% | residual activity (OXSR1 (human)): 102% | residual activity (PAK4 (human)): 102% | residual activity (PAK7 (human)): 110% | residual activity (PIM2 (human)): 111% | residual activity (PRKD2 (human)): 109% | residual activity (PRKG1 (human)): 101% and 103% | residual activity (PRKG2 (human)): 96.8% | residual activity (RIPK2 (human)): 89.2% | residual activity (ROCK1 (human)): 101% | residual activity (ROCK2 (human)): 109% | residual activity (RPS6KB1 (human)): 101% | residual activity (SRC (human)): 103% | residual activity (STK10 (human)): 92.6% | residual activity (STK17A (human)): 98.2% | residual activity (STK25 (human)): 89.8% | residual activity (TNK2 (human)): 92.3% | residual activity (TSSK2 (human)): 96.2% | residual activity (ZAP70 (human)): 97.3%

Nc1ncnc2c1cnn2-c1ccccc1
residual activity (AKT2 (human)): 102% | residual activity (ALK (human)): 90.9% | residual activity (BMX (human)): 96.8% | residual activity (CAMK2B (human)): 97.8% | residual activity (CDC42BPA (human)): 90.2% | residual activity (CDK3 CCNE1 (human); ATP 10 µM): 96.2% | residual activity (CLK2 (human)): 91.4% | residual activity (CSK (human)): 86.8% | residual activity (DAPK1 (human)): 98.5% | residual activity (DMPK (human)): 106% | residual activity (EPHA4 (human)): 96.2% | residual activity (EPHB2 (human)): 96.2% | residual activity (GRK7 (human)): 100% | residual activity (GSK3A (human)): 90.3% | residual activity (HCK (human)): 92.4% | residual activity (IRAK1 (human)): 85.8% | residual activity (LRRK2 (human)): 99.3% | residual activity (LTK (human)): 96.8% | residual activity (LYN (human)): 102% and 99.7% | residual activity (MAP3K11 (human)): 96% | residual activity (MAP4K2 (human)): 94.9% | residual activity (NEK1 (human)): 62.4% | residual activity (NEK7 (human)): 106% | residual activity (NTRK1 (human)): 96.1% | residual activity (OXSR1 (human)): 92.6% | residual activity (PAK4 (human)): 86.5% | residual activity (PAK7 (human)): 97% | residual activity (PIM2 (human)): 98.2% | residual activity (PRKD2 (human)): 126% | residual activity (PRKG1 (human)): 107% and 91.3% | residual activity (PRKG2 (human)): 99.2% | residual activity (RIPK2 (human)): 93.1% | residual activity (ROCK1 (human)): 93.8% | residual activity (ROCK2 (human)): 83.2% | residual activity (RPS6KB1 (human)): 103% | residual activity (SRC (human)): 96.9% | residual activity (STK10 (human)): 95.4% | residual activity (STK17A (human)): 102% | residual activity (STK25 (human)): 93.2% | residual activity (TNK2 (human)): 90.3% | residual activity (TSSK2 (human)): 106% | residual activity (ZAP70 (human)): 91.5%
